Experimental findings from patent publication US10927104B2, “Ether compounds and uses thereof” (BioTheryX, Inc., priority 2017, dated 2021) are described below.

Structures are written as SMILES.

Holding throughout (assay type): cell-based
In one test the test system is IL-6. The test is described as follows: PBMC assay, LPS-induced IL-6 (Meso Scale). To be noted: Homo sapiens, PBMCs, 100 ng/mL LPS 18-24 hrs; for inhibition at 0.1 µM: compound at 0.1 μM; for inhibition at 1 µM: compound at 1 μM. Here is the method:
FIG. 2 represents the activity against IL-6 in peripheral blood mononuclear cells (PBMCs), plated in 96 well plates and pretreated with compound for 1 hour and then induced with 100 ng/mL LPS for 18-24 hrs. Cytokines were measured according to MesoScale protocol. Negative control wells were treated with DMSO. Compound activity was measured as a percentage of LPS-induced activity.
(§1) Frozen primary blood mononuclear cells (PBMCs) were purchased from AllCells. Cells were quick thawed, washed once with RPMI-1640/10% FBS.
(§2) 1% Penicillin/1% Streptomycin and plated in 96 well plates at 200,000 cells per well. Cells were pretreated with DMSO only, or Compound 1 for 1 hour and then induced with 100 ng/mL lipopolysaccharide (LPS) for 18-24 hrs. The supernatant was analyzed for IL-1 beta, IL-6, and TNFα, using Meso Scale assay according to manufacturer's protocol. The negative control wells were treated with DMSO.
(§3) Compound activity was measured as fold difference from the DMSO control. IL-1β activity is shown in FIG. 1; IL-6 activity is shown in FIG. 2; TNFα activity is shown in FIG. 3; and IL-2 activity is shown in FIG. 4. Additional data for compounds (shown as percent inhibition) at 10 μM is shown in Table 1; at 1 μM in Table 2; and at 0.1 μM in Table 3.

The next test relates to Molm-13 cells. The test is described as follows: Cell viability assay (CellTiter-Glo), Molm-13 proliferation. To be noted: Homo sapiens, MOLM-13, 72 h, 3 days; for inhibition at 1 µM: compound at 1 μM. Here is the method: (§4) Molm-13 and MV-4-11 cells were cultivated in RPMI-1640 (10% FBS/1% pen-strep) and were plated in white walled 96-well plates at 20,000 cells/well.
(§5) Cells were treated with compound at the indicated concentration or DMSO (control) and the cultures were incubated for 3 days at 37° C. and 5% CO2. Following the incubation period, 100 μL of CellTiterGlow (CTG) reagent (CellTiter-Glo® Luminescent Cell Viability Assay, Promega (Madison, Wis.)) was added to each well. Following a 10 min incubation with shaking, luminescence was measured using a Victor Wallac Luminometer.
For orientation: In ATP-based viability assays light output follows the ATP content of the culture.

The next test relates to TNFα. The test is described as follows: PBMC assay, LPS-induced TNFα (Meso Scale). The conditions noted are these: Homo sapiens, PBMCs, 100 ng/mL LPS 18-24 hrs; for inhibition at 0.1 µM: compound at 0.1 μM; for inhibition at 1 µM: compound at 1 μM. Here is the method: FIG. 3 represents the activity against TNFα in peripheral blood mononuclear cells (PBMCs), plated in 96 well plates and pretreated with compound for 1 hour and then induced with 100 ng/mL LPS for 18-24 hrs. Cytokines in the media were measured according to MesoScale protocol. The negative control wells were treated with DMSO. Compound activity is measured as a percentage of LPS-induced activity.
as §1, §2, §3

A further test has as its system IL-1β. The test is described as follows: PBMC assay, LPS-induced IL-1β (Meso Scale). The conditions noted are these: Homo sapiens, PBMCs, 100 ng/mL LPS 18-24 hrs; for inhibition at 0.1 µM: compound at 0.1 μM; for inhibition at 1 µM: compound at 1 μM. Here is the method: FIG. 1 represents the activity against IL-1-beta in peripheral blood mononuclear cells (PBMCs), plated in 96 well plates and pretreated with compound for 1 hour and then induced with 100 ng/mL LPS for 18-24 hrs. Cytokines in the media were measured according to MesoScale protocol. Negative control wells were treated with DMSO. Compound activity is measured as a percentage of LPS-induced activity.
as §1, §2, §3

A further test deals with MV-4-11 cells. The test is described as follows: Cell viability assay (CellTiter-Glo), MV-4-11 proliferation. The conditions noted are these: Homo sapiens, MV4-11, 72 h, 3 days; for inhibition at 1 µM: compound at 1 μM; for inhibition at 10 µM: compound at 10 μM. Here is the method: as §4, §5
The next test has as its system IL-2. The experiment in a line: Anti-CD3-induced IL-2 secretion in PBMCs (Mesoscale). To be noted: Homo sapiens, PBMC, anti-CD3 stimulated PBMCs, 24 hr, vs DMSO control, read-out: IL-2 Fold Change; for fold induction at 0.1 µM: compound at 0.1 μM; for fold induction at 1 µM: compound at 1 μM. How it is done:
FIG. 4 represents Anti-CD3-induced IL-2 secretion in PBMCs. 1 μg/mL anti-CD3 (OKT-3) antibody in PBS coated onto 96-well plates overnight at 4° C. Approximately, 550,000 PBMCs were added to each well, followed by addition of DMSO only (control) or Compound 1. Induction was measured after 24 hrs as fold difference from the DMSO stimulated control.
as §1
For the IL-2 analysis, 96 well plates were precoated with 1 μg/mL anti-human CD3 antibody (OKT3, eBioscience Inc.). After washing with PBS, Compound 1 was added (50 μL/well) followed by PBMCs diluted at 3-4 million cells/mL (150 μL/well). Plates were incubated for 24 hr and the supernatants collected for Mesoscale IL-2 analysis.
as §3

Consider `Cc1cnc(Nc2ccc(OCCCNC(=O)NCc3ccc4c(c3OCc3ccc(CN5CCOCC5)cc3)CN([C@H]3CCC(=O)NC3=O)C4=O)cc2)nc1Nc1cccc(S(=O)(=O)NC(C)(C)C)c1` [Compound 23], for which the inhibition at 0.1 µM was 23% in the test with IL-6, 48% in the test with TNFα and 35% with IL-1β. For the same compound, the inhibition at 1 µM in the test on IL-6 came out at 32%; in the test with Molm-13 cells, 30%; in the test on TNFα it was 88%; with IL-1β, 79%; with MV-4-11 cells, 8%. In addition, the inhibition at 10 µM in the test on MV-4-11 cells is 79%. Moreover, in the test on IL-2, the fold induction at 0.1 µM is 0.9. Besides, the fold induction at 1 µM with IL-2 stood at 1.3.
On to `O=C1CCC[C@H](N2Cc3c(OCCc4ccc(CN5CCOCC5)cc4)cccc3C2=O)C(=O)N1` [Compound 26, (S)-3-(4-{2-[p-(Morpholinomethyl)phenyl]ethoxy}-2-isoindolinoyl)-2,7-azepanedione], for which the inhibition at 0.1 µM in the test with IL-6 stood at 5%; with Molm-13 cells (compound at 0.1 μM), 21%; in the test with TNFα it was 82%; in the test on IL-1β, 78%. The inhibition at 1 µM was determined as 8% in the test on IL-6; 66% with Molm-13 cells; 87% in the test on TNFα; 81% in the test with IL-1β; 2% in the test on MV-4-11 cells. The inhibition at 10 µM with MV-4-11 cells stood at 23%. The fold induction at 0.1 µM in the test with IL-2 worked out at 2.6. Further, the fold induction at 1 µM with IL-2 was 2.7.
With `Cc1cnc(Nc2ccc(OCCCNC(=O)NCc3ccc4c(c3OCc3ccc(CN5CCOCC5)cc3)CN([C@H]3CCCC(=O)NC3=O)C4=O)cc2)nc1Nc1cccc(S(=O)(=O)NC(C)(C)C)c1` [Compound 27], the values for the inhibition at 0.1 µM in the test on IL-6, in the test on TNFα and in the test with IL-1β were 5%, 60% and 50%, respectively. Also, the inhibition at 1 µM came to 4% in the test with IL-6; 37% in the test on Molm-13 cells; 72% in the test on TNFα; 62% with IL-1β; 10% in the test with MV-4-11 cells. In the test with MV-4-11 cells, this compound returned an inhibition at 10 µM of 36%. Further, the fold induction at 0.1 µM in the test on IL-2 was determined as 1.3. Further, in the test on IL-2, the fold induction at 1 µM was found to be 1.5.

As a reminder, the inhibition is how much of the control response was suppressed. Lower therefore signals a response near the control.
